Laboratory results reported in US6734182B2, “Aryl sulfonamides and sulfamide derivatives and uses thereof” (Synaptic Pharmaceutical Corporation, priority 1995, dated 2004).

How the values were obtained:
[1] = target: T1, human Y2 receptor (Homo sapiens, UniProt P49146); assay: Radioligand binding to cloned human Y2 receptor (125I-PYY); settings: cloned human Y2, stably transfected cells, read-out: Binding Affinity (K1 (nM) vs. 125I-PYY) Human Receptor Y2
T1 construct: expressed in transfected cells
T1 sequence (P49146 1-381): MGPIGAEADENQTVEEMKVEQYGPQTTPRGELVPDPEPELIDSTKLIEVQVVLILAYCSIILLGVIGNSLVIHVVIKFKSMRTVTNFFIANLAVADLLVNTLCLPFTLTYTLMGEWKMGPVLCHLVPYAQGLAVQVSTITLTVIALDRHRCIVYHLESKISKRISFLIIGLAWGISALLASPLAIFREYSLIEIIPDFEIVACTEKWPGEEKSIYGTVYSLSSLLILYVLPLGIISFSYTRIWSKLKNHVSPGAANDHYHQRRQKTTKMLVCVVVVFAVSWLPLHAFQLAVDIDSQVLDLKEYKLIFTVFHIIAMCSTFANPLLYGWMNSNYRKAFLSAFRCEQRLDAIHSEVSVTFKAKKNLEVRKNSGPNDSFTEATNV
Method: (§1) Human Y1, human Y2, and rat Y5 receptors were co-transfected with a G-418 resistant gene into the human embryonic kidney 293 cell line by a calcium phosphate transfection method (Cullen, 1987). Stably transfected cells were selected with G-418. Human Y4 and human Y5 receptors were similarly transfected into mouse fibroblast LM(tk−) cells and NIH-3T3 cells.
(§2) Binding of the compounds of the present invention to the human Y1, Y2, Y4 and Y5 receptors was evaluated using stably transfected 293 or LM(tk−) cells as described above. Stably transfected cell lines which may be used for binding assays include, for example, for the human Y1 receptor, 293-hY1-5 (deposited Jun. 4, 1996, under ATCC Accession No. CRL-12121), for the human Y2 receptor, 293-hY2-10 (deposited Jan. 27, 1994, under ATCC Accession No. CRL-11537), for the human Y4 receptor, L-hY4-3 (deposited Jan. 11, 1995, under ATCC Accession No. CRL-11779), and for the human Y5 receptor, L-hY5-7 (deposited Nov. 15, 1995, under ATCC Accession No. CRL-11995).
(§3) Membranes were harvested from COS-7 cells 48 hours after transient transfection. Adherent cells were washed twice in ice-cold phosphate buffered saline (138 mM NaCl, 8.1 mM Na2HPO4, 2.5 mM KCl, […], 0.9 mM CaCl2, 0.5 mM MgCl2, pH 7.4) and lysed by sonication in ice-cold sonication buffer (20 mM Tris-HCl, 5 mM EDTA, pH 7.7). Large particles and debris were cleared by low speed centrifugation (200 x g, 5 min, 4° C.). Membranes were collected from the supernatant fraction by centrifugation (32,000 x g, 18 min, […] ), washed with ice-cold hypotonic buffer, and collected again by centrifugation (32,000 x g, 18 min, 4° C.). […] Protein concentration was measured by the Bradford method (Bradford, 1976) using Bio-Rad Reagent, with bovine serum albumin as a standard. Membranes were held on ice for up to one hour and used fresh, or flash-frozen and stored in liquid nitrogen.
(§4) Membranes were prepared similarly from 293, LM(tk−), and NIH-3T3 cells. To prepare membranes from baculovirus infected cells, 2×10^7 Sf21 cells were grown in 150 mm tissue culture dishes and infected with a high-titer stock of hY5BB3. Cells were incubated for 2-4 days at 27° C., no CO2 be fore harvesting and membrane preparation as described above.

[2] = target: T2, human Y4 receptor (Homo sapiens, UniProt P50391); assay: Radioligand binding to cloned human Y4 receptor (125I-PYY); settings: cloned human Y4, stably transfected cells, read-out: Binding Affinity (K1 (nM) vs. 125I-PYY) Human Receptor Y4
T2 construct: expressed in transfected cells
T2 sequence (P50391 whole entry): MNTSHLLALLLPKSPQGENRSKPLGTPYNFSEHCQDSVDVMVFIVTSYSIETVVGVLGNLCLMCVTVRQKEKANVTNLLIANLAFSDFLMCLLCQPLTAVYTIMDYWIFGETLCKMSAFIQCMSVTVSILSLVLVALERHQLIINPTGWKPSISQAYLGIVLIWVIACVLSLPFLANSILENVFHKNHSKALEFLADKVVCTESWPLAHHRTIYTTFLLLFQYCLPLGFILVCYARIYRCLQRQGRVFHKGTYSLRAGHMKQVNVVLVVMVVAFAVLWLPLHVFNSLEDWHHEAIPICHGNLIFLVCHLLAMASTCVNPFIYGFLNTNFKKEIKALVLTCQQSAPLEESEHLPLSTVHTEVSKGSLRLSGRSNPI
Method: as §1, §2, §3, §4

[3] = test system: food intake in food-deprived rats; assay: Food intake in food-deprived rats (24 h food deprivation); type: in vivo, rat; design: concentration or dose not given beside the values; settings: rats after 24 h food deprivation; two hours after administration of test compound
[4] = target: T3, human 5HT1F receptor (Homo sapiens, UniProt P30939); assay: Binding to human 5HT1F receptor ([3H]serotonin); settings: cloned human receptor; read-out: Receptor (pKi) 5HT1F (converted)
T3 construct: expressed in transfected cells
T3 sequence (P30939 1-366): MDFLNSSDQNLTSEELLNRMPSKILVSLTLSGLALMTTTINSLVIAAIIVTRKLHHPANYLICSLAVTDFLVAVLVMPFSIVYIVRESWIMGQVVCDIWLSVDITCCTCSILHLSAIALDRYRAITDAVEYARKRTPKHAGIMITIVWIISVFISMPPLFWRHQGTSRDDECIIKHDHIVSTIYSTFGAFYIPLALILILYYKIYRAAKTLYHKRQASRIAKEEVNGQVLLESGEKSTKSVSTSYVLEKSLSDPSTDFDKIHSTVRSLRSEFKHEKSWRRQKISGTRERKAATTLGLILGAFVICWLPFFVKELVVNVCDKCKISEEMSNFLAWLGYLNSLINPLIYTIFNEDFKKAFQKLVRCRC
Method: (§5) 5HT1Dα, 5HT1Dβ, 5HT1E, 5HT1F Receptors: LM(tk−) clonal cell lines stably transfected with the genes encoding each of these 5HT receptor subtypes were prepared as described above. The cell line for the 5HT1Dα, receptor, designated as Ltk−8-30-84, was deposited on Apr. 17, 1990, and accorded ATCC Accession No. CRL 10421. The cell for the 5HT1Dβ receptor, designated as Ltk−11, was deposited on Apr. 17, 1990, and accorded ATCC Accession No. CRL 10422. The cell line for the 5HT1E receptor, designated 5 HT1E-7, was deposited on Nov. 6, 1991, and accorded ATCC Accession No. CRL 10913. The cell line for the 5HT1F receptor, designated L-5-HT1F, was deposited on Dec. 27, 1991, and accorded ATCC Accession No. ATCC 10957. Membrane preparations comprising these receptors were prepared as described below, and suspended in 50 mM Tris-HCl buffer (pH 7.4 at 37° C.) containing 10 mM MgCl2, 0.2 mM EDTA, 10 μM pargyline, and 0.1% ascorbate. The binding of compounds was determined in competition binding assays by incubation for 30 minutes at 37° C. in the presence of 5 nM [^3H) serotonin. Nonspecific binding was determined in the presence of 10 μM serotonin. The bound radioligand was separated by filtration through GF/B filters using a cell harvester.

[5] = target: T4, human 5HT1E receptor (Homo sapiens, UniProt P28566); assay: Binding to human 5HT1E receptor ([3H]serotonin); settings: cloned human receptor; read-out: Receptor (pKi) 5HT1E (converted)
T4 construct: expressed in transfected cells
T4 sequence (P28566 whole entry): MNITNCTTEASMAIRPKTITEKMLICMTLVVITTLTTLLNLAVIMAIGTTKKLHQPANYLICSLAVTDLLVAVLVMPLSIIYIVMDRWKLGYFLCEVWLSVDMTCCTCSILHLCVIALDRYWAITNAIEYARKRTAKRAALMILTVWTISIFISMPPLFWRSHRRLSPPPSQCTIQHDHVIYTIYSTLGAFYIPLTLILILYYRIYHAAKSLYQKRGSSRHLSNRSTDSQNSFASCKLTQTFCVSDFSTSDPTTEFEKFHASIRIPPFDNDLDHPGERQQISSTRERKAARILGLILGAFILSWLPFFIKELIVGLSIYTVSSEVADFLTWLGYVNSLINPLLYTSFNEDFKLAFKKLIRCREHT
Method: as §5

[6] = test system: NPY-induced feeding behavior in satiated rats; assay: NPY-induced food intake in satiated rats; type: in vivo, rat; settings: compound 10 mg/kg i.p., then 300 pmole NPY i.c.v., 4 hours after NPY, in g (unit assumed)
Method: For these determinations food intake maybe measured in normal satiated rats after intracerebroventricular application (i.c.v.) of NPY in the presence or absence of the test compound. Male Sprague Dawley rats ciba-Geigy AG, Sisseln, Switzerland weighing between 180 g and 220 g are used for all experiments. The rats are individually housed in stainless steel cages and maintained on an 11:13 h light-dark cycle (lights off at 18:00 h) at a controlled temperature of 21-23° C. at all times. Water and food (NAFAG lab chow pellets, NAFAG, Gossau, Switzerland) are available ad libidum.
Rats under pentobarbital anesthesia are stereotaxically implanted with a stainless steel guide cannula targeted at the right lateral ventricle. Stereotaxic coordinates, with the incisor bar set −2.0 mm below interaural line, are: −0.8 mm anterior and +1.3 mm lateral to bregma. The guide cannula is placed on the dura. […]
Food intake may be measured by placing preweighed pellets into the cages at the time of NPY injection. […] The food intake of animals treated with test compound may be calculated as a percentage of the food intake of control animals, i.e., animals treated with vehicle. Alternatively, food intake for a group of animals subjected to the same experimental condition may be expressed as the mean ±S.E.M. Statistical analysis is performed by analysis of variance using the Student-Newman-Keuls test. […]

[7] = target: T5, human Y1 receptor (Homo sapiens, UniProt P25929); assay: Radioligand binding to cloned human Y1 receptor (125I-PYY); settings: cloned human Y1, stably transfected cells, read-out: Binding Affinity (K1 (nM) vs. 125I-PYY) Human Receptor Y1
T5 construct: expressed in transfected cells
T5 sequence (P25929 1-384): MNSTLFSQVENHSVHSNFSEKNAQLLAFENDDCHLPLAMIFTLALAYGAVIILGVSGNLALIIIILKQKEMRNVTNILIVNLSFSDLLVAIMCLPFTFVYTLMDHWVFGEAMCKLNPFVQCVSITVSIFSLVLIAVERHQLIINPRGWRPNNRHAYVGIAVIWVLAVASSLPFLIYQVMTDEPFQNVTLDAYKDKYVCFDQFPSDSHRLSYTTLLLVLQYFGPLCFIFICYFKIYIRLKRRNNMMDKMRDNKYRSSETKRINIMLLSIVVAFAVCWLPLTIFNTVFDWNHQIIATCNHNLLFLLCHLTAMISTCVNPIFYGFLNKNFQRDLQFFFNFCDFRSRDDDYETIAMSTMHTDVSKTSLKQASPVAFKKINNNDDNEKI

[8] = target: T6, human Y5 receptor (Homo sapiens, UniProt Q15761); assay: Radioligand binding to cloned human Y5 receptor (125I-PYY); settings: cloned human Y5, stably transfected cells, read-out: Binding Affinity (K1 (nM) vs. 125I-PYY) Human Receptor Y5
T6 construct: expressed in transfected cells
T6 sequence (Q15761 1-445): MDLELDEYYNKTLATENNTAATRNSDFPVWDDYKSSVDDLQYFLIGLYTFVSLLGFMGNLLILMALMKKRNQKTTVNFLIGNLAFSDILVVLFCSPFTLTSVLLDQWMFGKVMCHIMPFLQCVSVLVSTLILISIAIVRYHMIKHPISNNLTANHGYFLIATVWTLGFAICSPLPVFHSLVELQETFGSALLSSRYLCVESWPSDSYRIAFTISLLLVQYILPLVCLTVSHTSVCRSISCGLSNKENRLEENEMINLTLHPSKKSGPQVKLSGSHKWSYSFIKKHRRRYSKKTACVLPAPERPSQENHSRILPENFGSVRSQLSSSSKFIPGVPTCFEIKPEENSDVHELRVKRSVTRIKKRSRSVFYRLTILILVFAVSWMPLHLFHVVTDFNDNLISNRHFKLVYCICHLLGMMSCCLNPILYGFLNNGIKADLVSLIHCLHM

[9] = target: T7, cloned human Y5 receptor (Homo sapiens, UniProt Q15761); assay: Functional assay: block of NPY-induced inhibition of cAMP accumulation in forskolin-stimulated LM(tk-) cells (radioimmunoassay of cAMP); type: cell-based; settings: antagonism of NPY-induced inhibition of cAMP accumulation, forskolin-stimulated LM(tk-) cells with human Y5; at least three experiments
T7 construct: expressed in transfected cells
T7 sequence (Q15761 1-445): T6 sequence (Q15761 1-445)

Ki [1] [nM] | Ki [2] [nM] | Ki [4] [µM] | Ki [5] [µM] | Ki [7] [nM] | Ki [8] [nM] | Kb [9] [µM] | SMILES | Two-hour food intake, percentage of intake compared to control rats, Mean (%) [3] [%] | NPY-induced cumulative food intake (NPY + compound), mean ± S.E.M. [6]
851 | 13100 | ≥ 5.01 | ≥ 5.01 |  |  |  | O=S(=O)(NC[C@H]1CC[C@H](CNC(CO)Cc2ccc(Cl)cc2)CC1)c1cccc2ccccc12 (relative stereo) [Example 77, Naphthalene-1-sulfonic Acid trans-(4-{[2-(4-Chloro-phenyl)-1-hydroxymethyl-ethylamino]-methyl}-cyclohexylmethyl)-amide] | 32 | 
 |  |  |  |  |  |  | Cl.O=S(=O)(NCC1CCC(CNCC2CCc3ccccc3C2)CC1)c1ccc2ccccc2c1 (centres unmarked) [Example 31] | 27 | 3.8 ± 0.4
617 | 21500 |  |  | 14500 | 26 | 0.038 | Cl.O=S(=O)(NCC1CCC(CNCc2cccc3ccccc23)CC1)c1ccccc1C(F)(F)F (centres unmarked) [Example 37] | 58 | 
1610 | 18500 |  |  | 13000 | 9.8 | 0.016 | Cl.O=S(=O)(NCC1CCC(CNCc2ccc3ccccc3c2)CC1)c1ccccc1C(F)(F)F (centres unmarked) [Example 38] | 80 | 
58200 | 19300 |  |  | 23700 |  |  | Cl.Cl.O=[N+]([O-])c1ccccc1S(=O)(=O)NCC1CCC(CNCc2ccc3ccccc3n2)CC1 (centres unmarked) [Example 44] | 73 | 
5280 | 63100 |  |  | 48700 | 28 | 0.049 | Cl.Cl.O=[N+]([O-])c1ccccc1S(=O)(=O)NCC1CCC(CNCc2ccnc3ccccc23)CC1 (centres unmarked) [Example 45] | 84 | 
